Experimental data: patent US12427346B2, “P62 ligand compound, and composition for preventing, ameliorating or treating proteinopathies comprising the same” (AUTOTAC INC., priority 2018, dated 2025)

Experiments:
p62 protein = target: T1, p62 protein (Homo sapiens, UniProt Q13501); test: Oligomerization activity of p62 protein by immunoblotting (Experimental Example 1); type: cell-based; details: HEK293 cell lysate treated with test compounds at room temperature for 2 hours; immunoblot, FIG. 2
T1 construct: endogenous in cells; host or cells: HEK293 (lysate treated with compounds)
T1 sequence (Q13501 whole entry): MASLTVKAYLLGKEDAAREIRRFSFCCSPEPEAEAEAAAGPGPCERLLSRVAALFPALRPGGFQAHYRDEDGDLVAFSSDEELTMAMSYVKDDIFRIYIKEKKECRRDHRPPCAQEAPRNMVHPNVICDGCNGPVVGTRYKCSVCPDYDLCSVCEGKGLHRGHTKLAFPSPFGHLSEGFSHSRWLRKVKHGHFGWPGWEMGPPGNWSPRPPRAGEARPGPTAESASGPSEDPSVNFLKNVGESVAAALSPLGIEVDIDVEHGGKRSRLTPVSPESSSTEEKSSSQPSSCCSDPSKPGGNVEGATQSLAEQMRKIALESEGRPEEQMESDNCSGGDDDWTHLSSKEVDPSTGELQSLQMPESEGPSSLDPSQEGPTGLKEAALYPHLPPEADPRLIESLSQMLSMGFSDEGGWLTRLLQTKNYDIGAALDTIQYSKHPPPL
Text: In order to evaluate the p62 protein oligomerization activity efficacy by the compounds (Examples 1-25), HEK293 cell line, which is human embryonic kidney-derived cell, was collected. As the representative compounds among the present compounds, the compounds of Examples 1, 2, 3, 5, 6, 7, 8, 9, 12, and 13 (Example 10 (YT-5-1), Example 11 (YT-5-2), Example 12 (YT 5-7), Example 13 (YT 5-8), Example 15 (YT-8-7), Example 16 (YT-8-8), Example 17 (YTK-107), Example 18 ([…]), Example 20 (ATB10041), Example 21 (ATB10042), Example 22 (ATB10043), Example 23 (ATB10044), Example 24 (ATB10045) and Example 25 (ATB10046)) were selected. In order to measure intracellular p62 protein activation and oligomerization according to the treatment with these selected representative compounds, the respective cells were dispensed into a 100 pi dish. The cells were collected after further culturing for 24 hours so that the cells were completely attached to the surface of the plate. 100 ul of lysis buffer (20 mM Tris, pH 7.4), 150 mM NaCl, 1% Triton X-100, 2 mM NaF, 2 mM EDTA, 2 mM beta-glycerophosphate, 5 mM sodium orthovanadate, 1 mM PMSF, leupeptin, aprotinin) were injected into each sample and the cells were lysed. Based on the measured total protein concentration, each sample was treated with test compounds at room temperature for 2 hours, and then a sample buffer was added and allowed to react at 95° C. for 10 minutes. 25 ul was taken from the samples after the reaction, and dispensed into each well of acrylamide gel, and then immunoblotting was performed.

LC3 [1] = test: Autophagy activity in cultured cells by immunoblotting, concentration series (Experimental Example 2); type: cell-based, human; details: HeLa cells; 1, 2, 5, 10 and 20 μM, 24 hours; immunoblot, FIG. 3
Procedure: In order to evaluate the autophagy activity efficacy by the compounds (Examples 1-25), HeLa cell line, which is a cell line derived from a cervical cancer patient, was cultured using a DMEM medium containing 10% FBS and 1% streptomycin/penicillin in an incubator with 5% carbon dioxide. As the representative compounds among the present compounds, the compounds of Examples 1, 2, 3, 5, 6, 7, 8, 9, 12 and 13 (Example 5 (YTK-1005), Example 1 (YTK-1105), Example 6 (YTK-1205), Example 7 (YTK-1305), Example 2 (YTK-2205), Example 3 (YTK-3305), Example 8 (YTK-105), Example 9 (YTK-205), Example 14 (YTK-1108), Example 12 (YT 5-7), Example 13 (YT 5-8)), Example 20 (ATB10041), Example 21 (ATB10042), Example 22 (ATB10043), Example 23 (ATB10044), Example 24 (ATB10045), and Example 25 (ATB10046)) were selected. In order to measure autophagy activity according to the treatment with these selected representative compounds, the respective cells were dispensed into 6 well plates. Additional cultures were performed for 24 hours so that the cells were completely attached to the surface of the plate. To find the concentration at which the respective compounds could increase the phenomenon of autophagy, the test compounds were diluted at 1, 2, 5, 10 and 20 μM and treated. After treatment with the respective compounds, the cells were cultured again in a cell incubator for 24 hours, and then the cells were collected. To extract proteins from the collected cells, 100 ul of lysis buffer (20 mM Tris (pH 7.4), 150 mM NaCl, 1% Triton X-100, 2 mM NaF, 2 mM EDTA, 2 mM beta-glycerophosphate, 5 mM sodium orthovanadate, 1 mM PMSF, leupeptin, aprotinin) was injected into each sample, and cells were lysed. Based on the measured total protein concentration, a sample buffer was added to each sample and allowed to react at 100° C. for 5 minutes. 5 ul was taken from the samples after the reaction, and dispensed into each well of acrylamide gel, and then immunoblotting was performed.

p62 and LC3 = test: Autophagy activity by immunofluorescence staining and confocal microscopy (Experimental Example 5); type: cell-based, human; details: HeLa cells, 5 uM, 24 hours, FIG. 6
Procedure: In order to confirm the p62 protein activity and the activity level of autophagy phenomenon by the compounds (Examples 1-25), immunofluorescence staining was performed using p62 and LC3 as markers. In order to confirm the p62 activity and the activity level of autophagy phenomenon by new p62 ligands and isomers thereof in cultured cells, HeLa cell line, which is a cell line derived from cervical cancer patient, was treated with the novel p62 ligand compounds (YTK-1205, YTK-1305, YTK-2205, YTK-3305, YTK-105, YTK-205, YT 5-1, YT 9-1, YT 5-2, YT 9-2, YT 8-2, YT 8-1, YTK-107, YTK-207) and cultured. Thereafter, as markers of the autophagy phenomenon, the expression level and location of LC3 puncta and the local co-existence with p62 puncta were observed.
For immunofluorescence staining, a cover glass was placed on a 24-well plate, cells were dispensed, cultured for 24 hours, and then treated with 5 uM of the novel p62 ligands according to the present invention. For the action of the compounds, additional cultures were performed for 24 hours, and then the medium was removed. Cells were fixed using formaldehyde at room temperature. In order to prevent non-specific staining, the cells were allowed to react with a blocking solution at room temperature for 1 hour, and then treated with LC3 antibody diluted at a certain ratio using the blocking solution, and allowed to reacted at room temperature for 1 hour. The antibody-treated cells were washed three times with PBS, and goat-derived secondary antibody was diluted at a certain ratio using the blocking solution, and then allowed to react at room temperature for 30 minutes. The cells were washed again with PBS three times, and for intracellular nuclear staining, the expression level, intracellular puncta formation and intracellular coexistence level of p62 and LC3 were observed through a confocal microscopy after DAPI staining.

LC3 [2] = test: Autophagy activity in cultured cells by immunoblotting, treatment time (Experimental Example 3); type: cell-based, human; details: HeLa cells; 5 μM for 1, 3, 6, 12, 24, 48 hours or 10 μM for 24 hours; immunoblot, FIG. 4
Procedure: In order to investigate the autophagy activity efficacy by the compounds (Examples 1-25), immunoblotting was performed in the same manner as in Experimental Example 2 using LC3 as a marker. As for the difference, in order to evaluate the treatment time required for activation and the activity retention time, 5 μM of the representative compounds selected among the present compounds (Example 5 (YTK-1005), Example 6 (YTK-1205), Example 7 (YTK-1305), Example 2 (YTK-2205), Example 3 (YTK-3305), Example 14 (YTK-1108), Example 8 (YTK-105), Example 9 (YTK-205)) were treated for 1, 3, 6, 12, 24, 48 hours. On the other hand, 10 μM of the representative compounds selected among the present compounds (Example 10 (YT 5-1), Example 11 (YT 5-2), Example 16 (YT 8-8), Example 15 (YT 8-7), Example 17 (YTK-107), Example 18 (YTK-207), Example 20 (ATB10041), Example 21 (ATB10042), Example 22 (ATB10043), Example 23 (ATB10044), Example 24 (ATB10045), Example 25 (ATB10046)) were treated for 24 hours.

| SMILES | p62 protein oligomerization activity (monomer, oligomers and high-molecular aggregates) (p62 protein) | autophagy activity (level of LC3) (LC3 [1]) | p62 activation and oligomerization, delivery to autophagosome, autophagy activity (p62 and LC3 puncta, local coexistence) (p62 and LC3) | autophagy activity (level of LC3) (LC3 [2]) |
| --- | --- | --- | --- | --- |
| OCCNCc1cccc(OCc2ccc(Cl)cc2)c1 [YT 5-7, 2-((3-((4-chlorobenzyl)oxy)benzyl)amino)ethan-1-ol] | increasing the p62 protein oligomerization activity | increasing the autophagy activity | – | – |
| OCCNCc1cccc(OCc2ccc(F)cc2)c1 [YT 5-8, 2-((3-((4-fluorobenzyl)oxy)benzyl)amino)ethan-1-ol] | increasing the p62 protein oligomerization activity | increasing the autophagy activity | – | – |
| OCCNCc1ccc(OCc2ccc(Cl)cc2)c(OCc2ccc(Cl)cc2)c1 [YT-5-1, 2-((3,4-bis((4-chlorobenzyl)oxy)benzyl)amino)ethan-1-ol] | increasing the p62 protein oligomerization activity | – | allow the activation and oligomerization of p62 proteins, and then show the efficacy of delivering them to autophagosome and simultaneously increasing autophagy activity | increasing the autophagy activity |
| OCCNCc1ccc(OCc2ccc(F)cc2)c(OCc2ccc(F)cc2)c1 [YT-5-2, 2-((3,4-bis((4-fluorobenzyl)oxy)benzyl)amino)ethan-1-ol] | increasing the p62 protein oligomerization activity | – | allow the activation and oligomerization of p62 proteins, and then show the efficacy of delivering them to autophagosome and simultaneously increasing autophagy activity | increasing the autophagy activity |
| OCCNCc1cccc(OCc2ccccc2)c1 [YTK-105, 2-((3-(benzyloxy)benzyl)amino)ethan-1-ol] | – | increasing the autophagy activity | allow the activation and oligomerization of p62 proteins, and then show the efficacy of delivering them to autophagosome and simultaneously increasing autophagy activity | increasing the autophagy activity |
| N=C(N)NCCNCc1cccc(OCc2ccccc2)c1 [YTK-107, 1-(2-((3-(benzyloxy)benzyl)amino)ethyl)guanidine] | increasing the p62 protein oligomerization activity | – | allow the activation and oligomerization of p62 proteins, and then show the efficacy of delivering them to autophagosome and simultaneously increasing autophagy activity | increasing the autophagy activity |
| N=C(N)NCCNCc1cccc(OCCc2ccccc2)c1 [YTK-207] | increasing the p62 protein oligomerization activity | – | allow the activation and oligomerization of p62 proteins, and then show the efficacy of delivering them to autophagosome and simultaneously increasing autophagy activity | increasing the autophagy activity |
| OCCNCCNCc1ccc(OCc2ccccc2)c(OCc2ccccc2)c1 [YTK-1108, 2-((2-((3,4-bis(benzyloxy)benzyl)amino)ethyl)amino)ethan-1-ol] | – | increasing the autophagy activity | – | – |
| OCCNCc1ccc(OCc2ccccc2)c(OCCc2ccccc2)c1 [YTK-1205, 2-((4-(benzyloxy)-3-phenethoxybenzyl)amino)ethan-1-ol] | – | increasing the autophagy activity | allow the activation and oligomerization of p62 proteins, and then show the efficacy of delivering them to autophagosome and simultaneously increasing autophagy activity | – |
| OCCNCc1ccc(OCc2ccccc2)c(OCCCc2ccccc2)c1 [YTK-1305, 2-((4-(benzyloxy)-3-(3-phenylpropoxy)benzyl)amino)ethan-1-ol] | – | increasing the autophagy activity | allow the activation and oligomerization of p62 proteins, and then show the efficacy of delivering them to autophagosome and simultaneously increasing autophagy activity | – |
| OCCNCc1ccc(OCCc2ccccc2)c(OCCc2ccccc2)c1 [YTK-2205, 2-((3,4-diphenethoxybenzyl)amino)ethan-1-ol] | – | increasing the autophagy activity | allow the activation and oligomerization of p62 proteins, and then show the efficacy of delivering them to autophagosome and simultaneously increasing autophagy activity | – |
| OCCNCc1ccc(OCCCc2ccccc2)c(OCCCc2ccccc2)c1 [YTK-3305, 2-((3,4-bis(3-phenylpropoxy)benzyl)amino)ethan-1-ol] | – | increasing the autophagy activity | allow the activation and oligomerization of p62 proteins, and then show the efficacy of delivering them to autophagosome and simultaneously increasing autophagy activity | – |
